Read-outs that look alike come from different tables or passages of the source.
Assays:
A375 Sensitive cells = experiment: Viability test, trypan blue exclusion, A375 Sensitive cells; type: cell-based, human; conditions: Homo sapiens, A-375, viable cells as percentage of DMSO control
How it was run: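 A375 (B-Raf, CDKN2A, PTEN mutant) cells were exposed to compounds at 5.0 or 10 μM for 24 or 48 hr; CRO15 also at 0.5–50 μM for 48 hr or 5 μM for 2–48 hr; DMSO control. Viable cells were counted by trypan blue exclusion, as % of control. Three experiments in triplicate.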

[1] = tested on: A375 resistant melanoma cells; experiment: In vivo murine cancer model, A375 resistant xenograft; parameters: species or system BALB/c nu/nu (nude) mice; conditions: 0.7 mg/mouse/day intraperitoneal
Method: Animal experiments were carried out in accordance with the Declaration of Helsinki and were approved by a local ethical committee CIEPAL (Comité Institutionnel d'Ethique Pour l'Animal de Laboratoire-Azur). Female immune-deficient BALB/c nu/nu (nude) mice were obtained at 5 weeks of age from Envigo Laboratory (Gannat, France). Nude mice were inoculated subcutaneously with A375 sensitive or resistant melanoma cells (1.0×10^6 cells/mouse). After tumor apparition (±5 days), animals received intraperitoneal injection of Labrafil (Control), PLX4032 (0.7 mg/mouse/day) or CRO15 (0.7 mg/mouse/day) dissolved in Labrafil. The growth tumor curves were determined by measuring the tumor volume using the equation V=(L*W2)/2 (V=tumor volume, W=tumor width, L=tumor length). At the end of the experiment, mice were euthanized by cervical dislocation and tumors were taken for western blot and immunofluorescence experiments (LC3, Cleaved Caspase 3). TUNEL assay was performed using the In Situ Cell Death Detection Kit (Roche, Meylan, France). The results are shown in FIGS. 3A and 3B (A375 sensitive melanoma cells), and 4B and 4C (A375 resistant melanoma cells).
In Vivo Murine Cancer Model Animal experiments were carried out in accordance with the Declaration of Helsinki and were approved by a local ethical committee CIEPAL (Comite Institutionnel d'Ethique Pour l'Animal de Laboratoire-Azur). Female immune-deficient BALB/c nu/nu (nude) mice were obtained at 5 weeks of age from Envigo Laboratory (Gannat, France). Nude mice were inoculated subcutaneously with A375 resistant melanoma cells (1.0×10^6 cells/mouse). After tumor apparition (+5 days), animals received intraperitoneal injection of Labrafil (Control), PLX4032 (0.7 mg/mouse/day) or MTF319 (0.7 mg/mouse/day) dissolved in Labrafil. The growth tumor curves were determined by measuring the tumor volume using the equation V=(L*W2)/2 (V=tumor volume, W=tumor width, L=tumor length). At the end of the experiment, mice were euthanized by cervical dislocation.

melanoma cells = conditions: literature, read-out: IC50 to induce cell death; cited from earlier work
[2] = 24 h, read-out: Viab A375 5 μM/ 24 h
[3] = 48 h, read-out: Viab A375 5 μM/ 48 h
[4] = 24 h, read-out: Viab A375 10 μM/ 24 h
[5] = 48 h, read-out: Viab A375 10 μM/ 48 h

Molecule `CCOc1cccc(-c2nc(N)nc(Nc3ccccc3SSc3ccccc3Nc3nc(N)nc(-c4cccc(OCC)c4)n3)n2)c1` [MTF 319, N2,N2′-(disulfanediylbis(2,1-phenylene))bis(6-(3-ethoxyphenyl)-1,3,5-triazine-2,4-diamine)] has a viability at 5 µM (A375 Sensitive cells; [2]) of 8.6%, a viability at 5 µM (A375 Sensitive cells; [3]) of 3.1% and a viability at 10 µM (A375 Sensitive cells; [4]) of 8.6%. The viability at 10 µM (A375 Sensitive cells; [5]) was 0.6%, the tumor volume ([1]; FIG. 4B, 6A) was “decrease in tumor volume” and the tumor weight ([1]; FIG. 4C, 6B) was “had an effect on the tumor growth”.

Molecule `Nc1nc(Nc2ccccc2SSc2ccccc2Nc2nc(N)nc(-c3c(Br)cncc3Br)n2)nc(-c2c(Br)cncc2Br)n1` [MTF 456, N2,N2′-(disulfanediylbis(2,1-phenylene))bis(6-(3,5-dibromopyridin-4-yl)-1,3,5-triazine-2,4-diamine)] has a viability at 5 µM (A375 Sensitive cells; [2]) of 66.5%, a viability at 5 µM (A375 Sensitive cells; [3]) of 87.5% and a viability at 10 µM (A375 Sensitive cells; [4]) of 52.3%. The viability at 10 µM (A375 Sensitive cells; [5]) was 76.1%.

Work on `Nc1nc(Nc2ccccc2SSc2ccccc2Nc2nc(N)nc(-c3cc4c(cc3Br)OCO4)n2)nc(-c2cc3c(cc2Br)OCO3)n1` [MTF 458, N2,N2′-(disulfanediylbis(2,1-phenylene))bis(6-(6-bromobenzo[d][1,3]dioxol-5-yl)-1,3,5-triazine-2,4-diamine)] yielded a viability at 5 µM (A375 Sensitive cells; [2]) of 58.7%, a viability at 5 µM (A375 Sensitive cells; [3]) of 86.8% and a viability at 10 µM (A375 Sensitive cells; [4]) of 46.5%. It also gave a viability at 10 µM (A375 Sensitive cells; [5]) of 104%.

Molecule `Nc1cccc(-c2nc(N)nc(Nc3ccccc3SSc3ccccc3Nc3nc(N)nc(-c4cccc(N)c4)n3)n2)c1` [MTF 460, N2,N2′-(disulfanediylbis(2,1-phenylene))bis(6-(3-aminophenyl)-1,3,5-triazine-2,4-diamine)] has a viability at 5 µM (A375 Sensitive cells; [2]) of 61.9%, a viability at 5 µM (A375 Sensitive cells; [3]) of 69.5% and a viability at 10 µM (A375 Sensitive cells; [4]) of 64.5%. The viability at 10 µM (A375 Sensitive cells; [5]) was 38.6%.

`CC(=O)c1cccc(-c2nc(N)nc(Nc3ccccc3SSc3ccccc3Nc3nc(N)nc(-c4cccc(C(C)=O)c4)n3)n2)c1` [MTF 462, 1,1′-((((disulfanediylbis(2,1-phenylene))bis(azanediyl))bis(6-amino-1,3,5-triazine-4,2-diyl))bis(3,1-phenylene))bis(ethan-1-one)] showed a viability at 5 µM (A375 Sensitive cells; [2]) of 101%, a viability at 5 µM (A375 Sensitive cells; [3]) of 80% and a viability at 10 µM (A375 Sensitive cells; [4]) of 4.8%. The viability at 10 µM (A375 Sensitive cells; [5]) was 44.1%.

With `Nc1nc(Nc2ccccc2SSc2ccccc2Nc2nc(N)nc(-c3ccccc3[N+](=O)[O-])n2)nc(-c2ccccc2[N+](=O)[O-])n1` [MTF 463, N2,N2′-(disulfanediylbis(2,1-phenylene))bis(6-(2-nitrophenyl)-1,3,5-triazine-2,4-diamine)] the viability at 5 µM (A375 Sensitive cells; [2]) was 80%, the viability at 5 µM (A375 Sensitive cells; [3]) was 74.3% and the viability at 10 µM (A375 Sensitive cells; [4]) was 56.1%. For the same molecule, the viability at 10 µM (A375 Sensitive cells; [5]) was 43.4%.

For `CN(C)C(=N)N=C(N)N` [metformin], the IC50 (melanoma cells) is listed as 10 mM.
